How the values were obtained:
3T3-L1 adipocytes = test: Adiponectin secretion promoting effect, Western blotting of culture supernatant; type: cell-based; settings: for adiponectin secretion promoting effect: in words, no time or concentration stated
Experimental: (§1) 3T3-L1 adipocytes can be allowed to grow and maintained in a 5% CO2 environment in high-glucose DMEM containing 50 U/ml penicillin, 50 μg/ml streptomycin, and 10% FCS. The 3T3-L1 cells were subcultured in a dish of 3.5 cm in diameter until confluent and then sufficiently differentiated into adipocytes by culture for another 2 days in the presence of insulin (10 μg/ml), dexamethasone ([…]), and IBMX (3-isobutyl-1-methylxanthine) (0.5 mM). Teadenol A (10 μM) or DMSO (vehicle control) was added to the sufficiently differentiated 3T3-L1 adipocytes, and each culture supernatant was collected after 8, 24, 32, and 48 hours. The amount of adiponectin secreted was determined by Western blotting method.

PTP1B = PTP1B expression inhibitory effect in 3T3-L1 adipocytes, Western blotting; type: cell-based; settings: for PTP1B expression inhibitory effect: in words, no time or concentration stated
Experimental: as §1
Teadenol A (10 μM) or DMSO (vehicle control) was added to the sufficiently differentiated 3T3-L1 adipocytes. After culture for 8, 24, 32, and 48 hours, the cells were collected, and the amount of PTP1B […] and the amount of α-tubulin were determined by Western blotting method.

[1] = Test of visceral fat and adiponectin functions (method not described); type: in vivo; settings: in words

SMILES | adiponectin secretion promoting activity (3T3-L1 adipocytes; 10 μM, 3T3-L1 adipocytes, statistically significant difference after 24 and 48 hours) | PTP1B expression inhibitory activity (PTP1B; 10 μM, 3T3-L1 adipocytes, statistically significant difference after 32 hours) | adiponectin [1] | visceral fat [1] | adiponectin secretion promoting effect (3T3-L1 adipocytes) | PTP1B expression inhibitory effect (PTP1B)
C=C1C=C(C(=O)O)O[C@@H]2Cc3c(O)cc(O)cc3O[C@H]12 [Teadenol A, teadenol A] | effective | effective | increasing adiponectin | decreasing visceral fat |  | 
C=C1C=C(C(=O)O)O[C@@H]2Cc3c(O)cc(O)cc3O[C@@H]12 [Teadenol B, teadenol B] |  |  |  |  | effective | effective
C=C1C=C(C(=O)O)O[C@@H]2Cc3c(O)cc(O)cc3OC12 (some centres unmarked) [compound (1)] |  |  |  |  | confirmed to have | confirmed to have
